{"source": "patent US8759364B2", "about": "“Methods of treating bone mass diseases” (The Trustees of Columbia University in the City of New York, priority 2008, dated 2014)", "key": {"rb 5-HT1B receptors": {"molecular_target": "rb 5-HT1B receptors (Oryctolagus cuniculus, UniProt P49144)", "sequence (P49144 whole entry)": "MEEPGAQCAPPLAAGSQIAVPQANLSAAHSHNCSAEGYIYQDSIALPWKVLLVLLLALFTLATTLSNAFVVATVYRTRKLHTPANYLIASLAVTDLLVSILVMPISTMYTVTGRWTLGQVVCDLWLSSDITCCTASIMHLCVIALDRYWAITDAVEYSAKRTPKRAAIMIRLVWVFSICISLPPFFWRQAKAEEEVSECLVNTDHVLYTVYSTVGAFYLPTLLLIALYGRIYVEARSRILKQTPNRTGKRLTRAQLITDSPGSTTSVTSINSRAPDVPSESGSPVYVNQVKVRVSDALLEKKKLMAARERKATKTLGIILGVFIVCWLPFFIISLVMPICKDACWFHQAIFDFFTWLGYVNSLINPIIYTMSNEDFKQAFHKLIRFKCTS", "details": "cited from earlier work"}, "[1]": {"system": "rat calvarial-derived osteoblasts", "details": "in vitro; cited from earlier work"}, "[2]": {"system": "peripheral serotonin production", "assay": "Pilot study of tryptophan hydroxylase inhibitors on peripheral serotonin production in ovariectomized mice, Example 12", "type": "in vivo", "details": "for effect on serotonin levels: oral (gavage) twice a day, dose not given", "description": "(§1) 6-week old C57Bl/6 inbred female mice, weighing 12-14 g, were used in the experiments. Animals were housed under 12 h light/12 h dark conditions in a room with controlled temperature (22° C.) and humidity (60%). Mice had ad libitum access to food and water, and were used after a minimum of 4 days of acclimatization to the housing conditions. All experiments were conducted following Columbia University Guidelines for the Animal Use and Care of laboratory mice.\nAnimals were separated into different groups one day prior to the experiments. Mice were ovariectomized (OVX) under anaesthesia (Avertin). Compounds were fed orally (Gavage) twice a day at 1700 h and at 1100 h for the pilot study while for the long term study compounds were given at 1700 h once a day. […] This route creates two potential barriers for the compound to reach the brain. […] Control animals received the same volume of vehicle. Blood was collected through heart puncture on isofluorane-anaesthesized animals, allowed to clot for 5 minutes on ice and then serum was separated, snap chilled in liquid nitrogen and frozen at −80° C. till analyzed. Mice were observed daily for any physical or behavioral abnormality during the course of investigation.\n• Group 1: Vehicle • Group 2: Compound 1 • Group 3: Compound 2 • Group 4: Compound 3 • Group 5: Compound 4 (LP-533401) Experiment II: Effect of Compounds 1 and 4 on Protection from OVX-Induced Bone Loss Protocol 1: Gavage Feeding of the Compounds Will be Started 1 Day after OVX for 6 Weeks • Group 1: Sham treatment • Group 2: OVX • Group 3: OVX+Compound 1 (250 mg/kg) • Group 4: OVX+Compound 1 (500 mg/kg) • Group 5: OVX+Compound 4 (250 mg/kg) Protocol 2: Gavage Feeding of the Compounds Will be Started 2 Weeks after OVX for 6 Weeks • Group 1: Sham treatment • Group 2: OVX • Group 3: OVX+Compound 1 (250 mg/kg) • Group 4: OVX+Compound 1 (500 mg/kg) • Group 5: OVX+Compound 4 (250 mg/kg) Protocol 3: Gavage Feeding of the Compounds Will be Started 4 Weeks after OVX for 6 Weeks • Group 1: Sham treatment • Group 2: OVX • Group 3: OVX+Compound 1 (250 mg/kg) • Group 4: OVX+Compound 1 (500 mg/kg) • […] Serotonin Measurement in Serum\nThe Serotonin ELISA kit obtained from the Fitzgerald company was used to measure derivatized serotonin from serum. Derivatization is part of the sample preparation. Serotonin present in the serum was first quantitatively acylated using the acylation reagent into N-Acylserotonin. The principle of the assay is based on competitive ELISA, wherein serotonin that is bound to the solid phase of the plate and the N-acylserotonin compete for the fixed number of antiserum binding sites. When the reaction is in equilibrium, free antigen and free antigen-antiserum complexes are removed by washing. The antibody bound to the solid phase serotonin is then detected by anti-rabbit/peroxidase. The substrate TMB/Peroxidase reaction is read at 450 nm. The amount of antibody bound to the solid phase serotonin is inversely proportional to the concentration of serotonin in the sample.\nWe used Catechol-3,6-bis methyleneiminodiacetic acid [(CBMIDA) Compound 1: basic structure is a EDTA-like compound and the catechol ring is at the center)] synthesized at the Columbia University Chemistry division and para-Chlorophenylalanine (pCPA) obtained from Sigma Aldrich Corp. for our experiments. Compounds were dissolved with twice molar solution of NaHCO3 in water and given to mice orally at 250 and 500 mg/kg/dose. Compounds 2 and 3 were dissolved in water."}, "[3]": {"details": "given orally, cited from earlier work"}, "peripheral serotonin": {"system": "peripheral serotonin", "assay": "Effect of oral CBMIDA on peripheral serotonin production in mice (serum serotonin ELISA), Example 1", "type": "in vivo", "details": "for reduction of peripheral serotonin measured in serum: 4 week old mice", "description": "The ability of selective TPH1 inhibitor CBMIDA to reduce peripheral serotonin measured in serum was tested. Either 250 or 500 mg/kg doses of CBMIDA were administered orally twice in 20 hours to 4 week old mice, 4-5 mice per group. As a control, some mice were untreated and some received 250 mg/kg pCPA orally. […] CBMIDA has been reported to be an EDTA analog that increases osteoid volume in beagle dogs and induces proliferation of rat calvarial-derived osteoblasts in vitro (Xie, et al., Bioorganic & Medicinal Chemistry Letters 15 (2005) 3267-3270, incorporated herein by reference in its entirety).\nas §1, with “One month” for “6-week”, “male” for “female”, “15-16 g” for “12-14 g,”\nBefore the experiments, animals were separated into individual cages one day prior to the experiment. Compounds were fed orally (gavage) to the mouse, calculated according to the weight of the mouse, twice a day at 1700 h and at 1100 h. […] This route created two potential barriers for the compound to reach the brain. […] Control animals received the same volume of vehicle. Blood was collected through heart puncture on isofluorane-anaesthesized animals and allowed to clot for 5 minutes on ice. The serum was separated, snap chilled in liquid nitrogen and frozen at −80° C. till analyzed. Brainstems from all the animals were collected and processed for brain serotonin measurement through HPLC.\nThe Serotonin ELISA kit obtained from the Fitzgerald company was used to measure derivatized serotonin from serum. Derivatization is part of the sample preparation. Serotonin present in the serum was first quantitatively acylated into N-Acylserotonin using the acylation reagent. The principle of the assay is based on competitive ELISA, wherein serotonin that is bound to the solid phase of the plate and the N-acylserotonin compete for the fixed number of antiserum binding sites. When the reaction is in equilibrium, free antigen and free antigen-antiserum complexes are removed by washing.\nThe antibody bound to the solid phase serotonin is then detected using antirabbit/peroxidase. The substrate TMB/Peroxidase reaction is read at 450 nm. The amount of antibody bound to the solid phase serotonin is inversely proportional to the concentration of serotonin in the sample.\nCatechol-3,6-bis methyleneiminodiacetic acid (CBMIDA) (basic structure is an EDTA-like compound and the catechol ring is at the centre) synthesized at the Columbia University Chemistry division, and para-chlorophenylalanine (pCPA) obtained from Sigma Aldrich Corp. were used. Each compound was dissolved with twice molar solution of NaHCO3 in water and given to mouse orally at 250 and 500 mg/kg/dose."}, "osteoid volume": {"system": "osteoid volume", "details": "beagle dogs; cited from earlier work"}, "CREB": {"system": "CREB", "assay": "CREB phosphorylation (Western blot) and CREB binding to Cyclin D1 promoter (ChIP) in primary osteoblasts treated with serotonin", "type": "cell-based, mouse", "description": "Decreased expression of Cyclin D1 is a major feature of both Lrp5 deficiency and serotonin treatment of osteoblasts (FIGS. 1 and 8). One transcription factor that is known to modulate the expression of cyclin genes and is expressed in osteoblasts is CREB (Fu et al., 2005, Cell 122:803-815). Therefore, whether serotonin could decrease CREB activity in these cells was tested. […] Furthermore, a CREB binding site in the Cyclin D1 mouse promoter was identified and it was shown using ChIP assays that serotonin decreased binding of CREB to this promoter (FIG. 9B). These two observations raise the hypothesis that CREB could be mediating serotonin action on osteoblasts.\n(§2) Osteoblasts were treated in serum-free medium with vehicle or Serotonin (50 to 100 μM, Sigma) for 24 hr. Total RNA were extracted with Trizol (Invitrogen). cDNA were generated using the ABI Reverse transcriptase system and random hexanucleotide primers. Real-time PCR was performed using superarray primers on a Stratagene real time PCR cycler and Actin expression was used as endogenous control. Chromatin immunoprecipitation assays (ChIP) were performed by standard procedures using primary osteoblasts. Microarray analysis was performed as described previously (Glass et al., 2005, Dev. Cell 8:751-764).\nOsteoblasts were treated in serum-free medium with vehicle or Serotonin (50 to 100 μM, Sigma) for 24 hr. […]"}, "primary osteoblasts": {"system": "primary osteoblasts", "assay": "Real-time PCR of cyclin and osteoblast-specific gene expression in primary osteoblasts treated with serotonin", "type": "cell-based, mouse", "details": "serotonin 50 to 100 μM, 24 hr, versus vehicle, FIG. 8B", "description": "To test whether serotonin regulates the expression of cyclins in osteoblasts, a real-time PCR analysis of cyclin expression in primary osteoblasts treated with serotonin or vehicle was performed. […] In contrast, expression of Runx2, Osteocalcin and Type I collagen was not modified (FIG. 8B).\nCalvaria osteoblasts were extracted by triple collagenase/trypsine digestion from 4 day-old CD1 pups and differentiated with ascorbic acid as previously described (Ducy et al., 2000, Cell 100:197-207).\nas §2"}, "[4]": {"system": "Serotonin levels in the small intestine", "details": "mice, twice per day over 3-4 days, about 30-90 mg/kg; after six consecutive doses; cited from earlier work"}, "brain-derived serotonin": {"system": "brain-derived serotonin", "details": "mice, twice per day over 3-4 days, about 30-90 mg/kg; cited from earlier work"}}, "note": "Values joined by “and” are separate entries in the source; they are usually repeats but may differ in a detail not shown here. Equal entries are not always repeated. Where two headings read alike, the source gives them in different places."}
{"molecule": "O=C(c1ccc(F)cc1)C1CCN(CCn2c(=O)[nH]c3ccccc3c2=O)CC1", "note": "[ketanserin]", "values": [{"measurement": "behaviour as antagonist", "setting": "rb 5-HT1B receptors", "value": "as silent, competitive"}]}
{"molecule": "O=C(O)CN(CC(=O)O)Cc1ccc(CN(CC(=O)O)CC(=O)O)c(O)c1O", "note": "[CBMIDA, Catechol-3,6-bis methyleneiminodiacetic acid]", "values": [{"measurement": "proliferation of osteoblasts", "setting": "[1]", "value": "induces"}, {"measurement": "decrease of serotonin serum levels", "setting": "[2]; 250 mg/kg, oral, compared with 500 mg/kg", "value": "lesser extent"}, {"measurement": "serotonin serum levels decreased to % below normal", "setting": "[2]; 500 mg/kg twice daily, oral, FIG. 15", "value": 80, "unit": "%"}, {"measurement": "dose response of serotonin levels", "setting": "[2]; different doses compared to control animals, FIG. 15", "value": "dose response curve"}, {"measurement": "share of the oral amount transported into the circulation (blood)", "setting": "[3]", "value": "3-5% and 5-10%"}, {"measurement": "share of the oral amount transported into the circulation (blood)", "setting": "[3]; listed as Compound 1", "value": "5-10%"}, {"measurement": "reduction of peripheral serotonin measured in serum", "setting": "peripheral serotonin; 250 mg/kg orally twice in 20 hours", "value": "~45", "unit": "%"}, {"measurement": "decrease of serotonin serum levels", "setting": "peripheral serotonin; 250 mg/kg, oral, compared with 500 mg/kg, FIG. 11", "value": "lesser extent"}, {"measurement": "reduction of peripheral serotonin measured in serum", "setting": "peripheral serotonin; 500 mg/kg orally twice in 20 hours", "value": "about 80%"}, {"measurement": "serotonin serum levels decreased to % below normal", "setting": "peripheral serotonin; 500 mg/kg twice daily, oral, FIG. 11", "value": 80, "unit": "%"}, {"measurement": "dose response of serum serotonin reduction", "setting": "peripheral serotonin; 250 and 500 mg/kg versus control animals", "value": "dose response curve"}, {"measurement": "peripheral serotonin upon oral feeding", "setting": "peripheral serotonin; FIG. 11 legend", "value": "reduces"}, {"measurement": "osteoid volume", "setting": "osteoid volume", "value": "increases"}]}
{"molecule": "CN1CCc2cccc3c2[C@H]1Cc1cc(CN(CC(=O)O)CC(=O)O)c(O)c(O)c1-3", "note": "[Compound 3]", "values": [{"measurement": "effect on serotonin levels", "setting": "[2]; pilot study", "value": "decreased the serotonin levels dramatically"}, {"measurement": "toxicity to the animals (looked very lethargic and sick)", "setting": "[2]; oral, pilot study", "value": "toxic"}]}
{"molecule": "CSc1ccc2c(c1)C(N1CCN(C)CC1)Cc1ccccc1S2", "note": "(stereo not drawn) [methiothepin]", "values": [{"measurement": "behaviour as antagonist", "setting": "rb 5-HT1B receptors", "value": "as silent, competitive"}]}
{"molecule": "NC(=O)CN(CC(=O)O)Cc1ccc(CN(CC(N)=O)CC(=O)O)c(O)c1O", "note": "[Compound 2]", "values": [{"measurement": "effect on serotonin levels", "setting": "[2]; pilot study", "value": "minimal effect"}]}
{"molecule": "NCCc1c[nH]c2ccc(O)cc12", "note": "[serotonin, 5-hydroxytryptamine]", "values": [{"measurement": "CREB phosphorylation", "setting": "CREB; FIG. 9A", "value": "significantly decreased"}, {"measurement": "binding of CREB to the Cyclin D1 promoter (ChIP)", "setting": "CREB; FIG. 9B", "value": "decreased"}, {"measurement": "expression of Cyclin D1 and D2", "setting": "primary osteoblasts", "value": "decreased"}, {"measurement": "expression of Runx2, Osteocalcin and Type I collagen", "setting": "primary osteoblasts", "value": "not modified"}]}
{"molecule": "CCOC(=O)[C@@H](N)Cc1ccc(-c2cc(OC(c3ccc(-c4cccc(F)c4)cc3)C(F)(F)F)nc(N)n2)cc1", "note": "(stereo partly drawn) [LP-615819]", "values": [{"measurement": "Serotonin levels in the small intestine", "setting": "[4]", "value": "significantly lowered"}, {"measurement": "brain-derived serotonin", "setting": "brain-derived serotonin", "value": "unchanged"}]}
